The supplement of paper PMC13380429

Experiments:
Conditions in all cases: 72 h
Calu-3 [1] = experiment: relative viability EC50 (midpoint between 100% and the lowest measured viability); higher = less toxic
Vero E6 [2] = experiment: as above
HepG2 [3] = experiment: as above
U2OS [4] = experiment: as above
Caco-2 [5] = experiment: as above
Calu-3 [6] = experiment: drug sensitivity score (DSS) for viability; higher = more toxic; extreme values may be limits of the assay
Vero E6 [7] = experiment: as above
HepG2 [8] = experiment: as above
U2OS [9] = experiment: as above
Caco-2 [10] = experiment: as above
Calu-3 [11] = experiment: cell viability relative to DMSO; higher = less toxic
Vero E6 [12] = experiment: as above
HepG2 [13] = experiment: as above
U2OS [14] = experiment: as above
Caco-2 [15] = experiment: as above

Structure (SMILES) | relative viability EC50 (Calu-3 [1]) [µM] | relative viability EC50 (Vero E6 [2]) [µM] | relative viability EC50 (HepG2 [3]) [µM] | relative viability EC50 (U2OS [4]) [µM] | relative viability EC50 (Caco-2 [5]) [µM] | drug sensitivity score (Calu-3 [6]) | drug sensitivity score (Vero E6 [7]) | drug sensitivity score (HepG2 [8]) | drug sensitivity score (U2OS [9]) | drug sensitivity score (Caco-2 [10]) | cell viability (Calu-3 [11]; 1 nM) [%] | cell viability (Calu-3 [11]; 10 nM) [%] | cell viability (Calu-3 [11]; 100 nM) [%] | cell viability (Calu-3 [11]; 1000 nM) [%] | cell viability (Calu-3 [11]; 10000 nM) [%] | cell viability (Vero E6 [12]; 1 nM) [%] | cell viability (Vero E6 [12]; 10 nM) [%] | cell viability (Vero E6 [12]; 100 nM) [%] | cell viability (Vero E6 [12]; 1000 nM) [%] | cell viability (Vero E6 [12]; 10000 nM) [%] | cell viability (HepG2 [13]; 1 nM) [%] | cell viability (HepG2 [13]; 10 nM) [%] | cell viability (HepG2 [13]; 100 nM) [%] | cell viability (HepG2 [13]; 1000 nM) [%] | cell viability (HepG2 [13]; 10000 nM) [%] | cell viability (U2OS [14]; 1 nM) [%] | cell viability (U2OS [14]; 10 nM) [%] | cell viability (U2OS [14]; 100 nM) [%] | cell viability (U2OS [14]; 1000 nM) [%] | cell viability (U2OS [14]; 10000 nM) [%] | cell viability (Caco-2 [15]; 1 nM) [%] | cell viability (Caco-2 [15]; 10 nM) [%] | cell viability (Caco-2 [15]; 100 nM) [%] | cell viability (Caco-2 [15]; 1000 nM) [%] | cell viability (Caco-2 [15]; 10000 nM) [%]
CN(C)CCc1ccc(O)cc1 [hordenine] | > 10 | > 10 | > 10 | > 10 | > 10 | 0 | 0 | 0 | 0 | 0 | 91.9 | 93.6 | 89.7 | 101 | 101 | 106 | 103 | 101 | 99.1 | 103 | 104 | 110 | 103 | 87.1 | 100 | 94.6 | 96.1 | 92.7 | 102 | 97.8 | 96.2 | 102 | 100 | 102 | 95.8
Cc1nc(Nc2n[nH]c3c2CN(C(=O)N[C@H](CN(C)C)c2ccccc2)C3(C)C)c2sccc2n1 | 0.571 | 0.552 | 0.0349 | 0.192 | 0.203 | 10.1 | 7.4 | 24.9 | 19 | 9.5 | 92.2 | 89.9 | 82 | 61.7 | 25.2 | 97.9 | 99.9 | 93.7 | 64.4 | 46.6 | 89 | 72.6 | 38.4 | 26.6 | 10.3 | 100 | 88.6 | 54.5 | 35 | 0.8 | 98.9 | 97.9 | 70.6 | 68.8 | 45.9
Nc1ccc(S(=O)(=O)NC(=O)c2ccccc2)cc1 [sulfabenzamide] | > 10 | > 10 | > 10 | > 10 | > 10 | 0 | 0 | 0 | 0 | 0 | 109 | 101 | 96.8 | 106 | 106 | 97.4 | 95.4 | 92.1 | 96.7 | 105 | 109 | 102 | 99 | 103 | 109 | 94.7 | 93.9 | 102 | 98.1 | 103 | 92.3 | 104 | 100 | 100 | 108
OC[C@H]1O[C@H]([S-])[C@H](O)[C@@H](O)[C@@H]1O.[Au+] [aurothioglucose] | > 10 | > 10 | > 10 | 2.24 | > 10 | 0 | 0 | 0 | 5.4 | 0.5 | 101 | 92.1 | 97.3 | 106 | 100 | 87.3 | 91.2 | 86.7 | 89.5 | 117 | 90.4 | 106 | 106 | 120 | 97.5 | 96.1 | 98.4 | 98.7 | 91.8 | 27.4 | 108 | 92.2 | 98.7 | 91.3 | 84.2
Cn1cc(C(=O)OCC2CCN(CCNS(C)(=O)=O)CC2)c2ccccc21 | > 10 | > 10 | > 10 | > 10 | > 10 | 0 | 0 | 0 | 0 | 0 | 86 | 109 | 100 | 103 | 108 | 101 | 96.8 | 100 | 95.1 | 96.5 | 96.1 | 96.3 | 93.9 | 93.3 | 91.3 | 99.7 | 101 | 96.8 | 98.8 | 95.3 | 99 | 95.8 | 85.9 | 93.3 | 96.8
COc1c(Nc2ccc(S(C)(=O)=O)nc2C)ncnc1OC1CCN(C(=O)OC(C)C)CC1 [APD597] | > 10 | > 10 | > 10 | > 10 | > 10 | 0 | 0 | 0.1 | 0 | 0 | 106 | 105 | 106 | 109 | 98.7 | 106 | 98.2 | 97 | 100 | 95.5 | 99.6 | 104 | 94.4 | 94.6 | 86.3 | 99.5 | 99.1 | 99.6 | 99.7 | 100 | 96.5 | 96.2 | 103 | 93.4 | 90.2
O=C(CCCCCN1C(=O)c2cccc3cccc(c23)C1=O)NO [scriptaid] | 1.3 | 1.56 | 1.64 | 1.45 | 1.72 | 8 | 9.3 | 8.8 | 9.4 | 8.6 | 101 | 102 | 102 | 73.7 | 23.4 | 107 | 106 | 103 | 75.3 | 0.1 | 108 | 109 | 93 | 78.2 | 2.9 | 102 | 98.6 | 96.8 | 72.7 | 3.1 | 107 | 90.8 | 97.6 | 80 | 2.4
N=C(N)c1ccc(N2CCN(C3CCN(CC(=O)O)CC3)CC2)cc1 | > 10 | > 10 | > 10 | > 10 | > 10 | 0 | 0 | 0 | 0 | 0 | 91.4 | 96.4 | 90 | 92 | 100 | 97.9 | 98.6 | 99.2 | 93.5 | 96.9 | 111 | 96.8 | 101 | 107 | 102 | 97.6 | 103 | 95.6 | 96.9 | 102 | 83 | 97.2 | 89.2 | 92.5 | 104
O=c1c(O)c(-c2ccc(O)cc2O)oc2cc(O)cc(O)c12 [morin] | > 10 | > 10 | > 10 | > 10 | > 10 | 0 | 0 | 0 | 0 | 0 | 113 | 99.5 | 96.3 | 91.6 | 102 | 94.9 | 95.8 | 99 | 98.4 | 95.9 | 87.2 | 103 | 98.9 | 97.4 | 98.9 | 101 | 93.7 | 104 | 97.3 | 102 | 102 | 96.5 | 96.6 | 102 | 88.6
Nc1cc(-c2ccncc2)c[nH]c1=O [amrinone] | > 10 | > 10 | > 10 | > 10 | > 10 | 0 | 0 | 0 | 0 | 0 | 94.9 | 95.7 | 93.7 | 93.9 | 109 | 95.5 | 96.2 | 86.6 | 100 | 106 | 96.2 | 100 | 104 | 97.8 | 97.3 | 104 | 98.3 | 105 | 98.9 | 108 | 96.2 | 97.1 | 92.4 | 91.8 | 95.9
Clc1ccccc1C(c1ccccc1)(c1ccccc1)n1cccn1 [TRAM-34] | > 10 | > 10 | > 10 | > 10 | > 10 | 0 | 0 | 0 | 0 | 0 | 104 | 104 | 106 | 93.4 | 103 | 104 | 111 | 97.6 | 104 | 98.9 | 107 | 96.5 | 93.5 | 98.4 | 104 | 97.6 | 98.4 | 101 | 99.2 | 99 | 95.8 | 89 | 99 | 99 | 90.1
C=CCC1(CC(C)C)C(=O)NC(=O)NC1=O [butalbital] | > 10 | > 10 | > 10 | > 10 | > 10 | 0 | 0 | 0 | 0 | 0 | 94.5 | 96.7 | 102 | 103 | 114 | 105 | 106 | 118 | 109 | 89.9 | 108 | 99.6 | 92.5 | 109 | 94.8 | 95.1 | 97.6 | 98.8 | 94.3 | 112 | 82.1 | 114 | 80.1 | 105 | 102
CC(C)(C)c1nc(-c2cccc(NS(=O)(=O)c3c(F)cccc3F)c2F)c(-c2ccnc(N)n2)s1 [dabrafenib] | > 10 | > 10 | 0.49 | > 10 | > 10 | 0 | 0 | 9.8 | 0 | 0 | 88 | 93.8 | 106 | 99.3 | 124 | 96.5 | 104 | 103 | 79.8 | 102 | 96.4 | 90.9 | 78.3 | 65.9 | 30.4 | 102 | 93.2 | 107 | 95.3 | 102 | 103 | 97.1 | 98.2 | 77.8 | 101
CCN(CC)CCOc1ccccc1C(=O)CCc1ccccc1 [etafenone] | > 10 | > 10 | > 10 | > 10 | > 10 | 0 | 0 | 0 | 0 | 0 | 96.9 | 99 | 106 | 108 | 101 | 93.2 | 93 | 101 | 91.8 | 102 | 98.6 | 90.6 | 106 | 94.7 | 94.3 | 94.8 | 101 | 97.9 | 103 | 103 | 93.3 | 104 | 94 | 103 | 100
